Data taken from US20220105072A1, “PHARMACEUTICAL COMPOSITION FOR PREVENTING OR TREATING DIABETES COMPLICATIONS COMPRISING NOVEL CHRYSIN DERIVATIVE COMPOUND AS ACTIVE INGREDIENT” (FRONTBIO INC., priority 2018, published 2022).
Converted amounts (≈) assume the structure as drawn. Like-named read-outs stand apart in the source and are kept apart here.

Tests used:
[1] = Solubility analysis in distilled water (HPLC); assay type: physicochemical; settings: for solubility in water, times higher than Comparative Example 1: versus Comparative Example 1
Method: The chrysin and derivatives thereof were dissolved in distilled water and sonicated for 1 hour to maximize solubility and incubated at 37° C. After sonication, undissolved samples were removed by centrifugation (7000 g, 37° C., 5 min). The concentration of the sample was analyzed by HPLC by diluting the supernatant with methanol and filtering through a 0.45 μm disposable syringe filter (Advantec, Dublin, Calif., USA).

[2] = tested on: crosslinking of AGEs; assay: N-acetyl-glycyl-lysine-methyl ester D-ribose assay, crosslinking of AGEs (late stage); assay type: biochemical; settings: for IC50: read-out: IC50 (AGE crosslinking, late stage)
Method: (3) N-acetyl-glycyl-lysine-methyl ester D-ribose assay on crosslinking of AGEs (late stage)
This test was used to evaluate the ability of the sample to inhibit crosslinking of GK peptides in the presence of D-ribose using the method described by Rahbar et al. (1999). The GK peptide (26.7 mg/mL) was incubated with D-ribose (200 mg/mL) under aseptic conditions in sodium phosphate buffer (0.5 M, pH 7.4) at 37° C. for 24 hours. The synthesized compound was added to the model system at a final concentration of 1 mM, excluding the aminoguanidine used at 10 mM and 50 mM. At the end of the incubation period, fluorescence intensity was measured at an excitation wavelength of 335 nm and an emission wavelength of 460 nm.

[3] = tested on: AGE formation; assay: Bovine serum albumin-methylglyoxal analysis, AGE formation (intermediate stage); assay type: biochemical
Method: (2) Bovine Serum Albumin—Methylglyoxal Analysis with Respect to AGE Formation (Intermediate Stage)
Bovine serum albumin (50 mg/mL) was incubated with methylglyoxal (100 mM) in a sodium phosphate buffer ([…], pH 7.4) at 37° C. for 24 hours in the presence of various concentrations of compounds (including a control group).
All reagents and samples were sterilized by filtration through […] membrane filters. Fluorescence intensity was measured at an excitation wavelength of 355 nm and an emission wavelength of 460 nm using a luminescence spectrometer LS50B (Perkin-Elmer Ltd., Buckinghamshire, England) (Wu & Yen, 2005). The test was conducted using aminoguanidine as a positive control group. The concentration of each test sample showing 50% inhibitory activity (IC50) was estimated from the least squares regression line of logarithmic concentrations plotted against the residual activity.

[4] = tested on: formation of Amadori compound; assay: Hemoglobin-δ-gluconolactone assay, formation of Amadori compound (initial stage); assay type: biochemical, human; settings: for initial inhibitory activity, times higher than the positive control: versus positive control group (aminoguanidine)
Method: (1) Analysis of Hemoglobin-δ-Gluconolactone with Respect to Formation of Amadori Compound (Initial Stage)
Evaluation of the initial stage of protein glycosylation was determined by δ-gluconolactone assay (Rahbar et al., 1999). Briefly, fresh human blood (50 mg/mL) was cultured with glucose (144 mg/mL) in a phosphate buffer (pH 7.4) containing 0.2 g/L of NaN3 under conditions of […] at 37° C. for 7 days.
In certain experiments, an indicated sample was added in a concentration range of 0.01 to 1 mM to a model system. Fluorescence of the sample was measured at maximum excitation and emission values of 355 nm and 460 nm, respectively. The test was conducted using aminoguanidine, a known inhibitor, as a positive control group.

[5] = tested on: RAW 264.7 cells; assay: NO production in LPS-induced RAW 264.7 cells (Griess reagent); assay type: cell-based; settings: 24 hours, FIG. 1A
Method: The cytotoxicity of chrysin and derivatives thereof in RAW 264.7 cells was investigated using a MTS assay kit. Cells (1.6×10^4/well) were cultured in 96-well plates and treated with samples (10, 25 and 100 μM) for 12, 24, 48 and 72 hours. After culture, a MTS solution was incubated at 20 μL/well at 37° C. in a humidified 5% CO2 atmosphere for 90 minutes. The optical density at 490 nm was measured three times using an EL-800 universal microplate reader (Bio-Tek Instrument Inc., Winooski, USA). The cell viability of a untreated group was set at 100%. RAW 264.7 cells were seeded at a density of 4×10^5 cells/well on a 12-well plate and incubated with LPS (1 μg/mL) and samples of various concentrations for 24 hours. The concentration of […] (NO) in the medium was measured using a Griess reagent system described by the manufacturer. The production of NO was measured at 570 nm using an EL-800 Universal microplate reader (Bio-Tek Instrument Inc., Winooski, USA) and compared with the nitrite standard calibration curve.

In the case of `O=c1cc(-c2ccccc2)oc2cc(O)cc(O)c12` [Comparative Example 1, 5,7-dihydroxy-2-phenyl-4H-chromen-4-one, reference compound], the Solubility in water ([1]; 37° C.) is reported as 30 µM (≈ 7.63 µg/mL), the “inhibitory activity (late stage)” value ([2]; at a concentration of 10.0 mg/mL) is reported as “did not exhibit inhibitory activity” and the “activity against AGE formation, times higher than the positive control group” value ([3]; versus aminoguanidine) is reported as 5.48 times.
In the case of `COc1cc(OC)c2c(=O)cc(-c3ccccc3)oc2c1` [Synthesis Example 5, 5,7-dimethoxy-2-phenyl-4H-chromen-4-one], the IC50 ([2]; unit inferred) is reported as 39.9 µM, the “initial inhibitory activity, times higher than the positive control” value (from here on “initial inhibitory activity”) [4] is reported as 13.92 times and the IC50 [3] is reported as 41.8 µM.
With `CC(=O)Oc1cc(OC(C)=O)c2c(=O)cc(-c3ccccc3)oc2c1` [Synthesis Example 2, 4-oxo-2-phenyl-4H-chromen-5,7-diyl diacetate] the Solubility in water ([1]; 37° C.) was 265 µM, the “solubility in water, times higher than Comparative Example 1” value [1] was 8.83 times and the “effect on NO production” value [5] was “inhibited NO in a concentration-dependent manner”. The IC50 ([2]; unit inferred) was 22.3 µM, the “inhibitory activity against formation of the Amadori compound, times higher than chrysin” value ([4]; versus chrysin) was 66.96 times and the “initial inhibitory activity” value [4] was 422.07 times. For the same molecule, the IC50 [3] was 0.91 µM.
For `CC(=O)Oc1cc(O)c2c(=O)cc(-c3ccccc3)oc2c1` [Synthesis Example 1, 5-hydroxy-4-oxo-2-phenyl-4H-chromen-7-yl acetate], the Solubility in water ([1]; 37° C.) was 86 µM, the “solubility in water, times higher than Comparative Example 1” value [1] was 2.87 times and the “initial inhibitory activity” value [4] was 4.66 times. It also gave an IC50 [3] of 21.6 µM.
`N=C(N)NN` [Positive control group (Aminoguanidine), aminoguanidine, reference compound] gave a solubility at 1 h ([1]; distilled water, water, thermodynamic from solid, 37° C.) of 30 µM (≈ 2.22 µg/mL), an IC50 [2] of 1900 µM and an IC50 [3] of 137 µM.
